How the values were obtained:
[1] = target: MALT1-GS-Ub (6-His-hMALT-1 residues 339-715 fused to ubiquitin) (Homo sapiens (Human), UniProt Q9UDY8); assay: MALT1 Protease Assay 1 (Assay 1), cleavage of fluorogenic tetrapeptide substrate; type: biochemical; settings: MALT1-GS-Ub 300-600 nM, Ac-LVSR-AMC 100 μM, 30 min preincubation, 60 min read
Description: MALT1 Protease Assay 1 (Assay 1)
(§1) MALT1 protease activity was assessed in vitro by measuring the cleavage of a fluorogenic tetrapeptide substrate.
A protein (MALT1-GS-Ub) comprising 6-His-hMALT-1 (residues 339-715), fused to ubiquitin with an 8× GGS linker, was expressed in E. coli, and purified using chitin resin to remove contaminants followed by affinity chromatography purification and size-exclusion chromatography, according to standard protocols.
Briefly, MALT1-GS-Ub (300-600 nM) was incubated with substrate (Ac-LVSR-AMC, 100 μM) in reaction buffer comprising 50 mM HEPES (pH7.0), 25 mM KCl, 0.1% (v/v) CHAPS and 1 mM TCEP.
(§2) Test compounds dissolved in DMSO were dispensed into assay plates (384-well, black, shallow ProxiPlates). 7 μl enzyme solution was added and incubated at room temperature for 30 minutes to allow compound binding to occur. 2 μl substrate solution was then added and the fluorescence (excitation 360 nm, emission 460 nm) read every 15 minutes using a suitable plate reader. Final assay DMSO concentration was 1%. Linearity over 60 minutes was confirmed, and assay signal was calculated by subtracting raw counts at time 0 from those at 60 minutes. % inhibition was calculated for each well, using no enzyme for 100% inhibition controls and no compound for 0% inhibition controls. IC50 values were calculated using GraphPad Prism using a 4-parameter non-linear regression curve fit.

FL hMALT1 enzyme = FL hMALT1 enzyme (Homo sapiens (Human), UniProt Q9UDY8); assay: MALT1 Protease Assay 2 (Assay 2), higher sensitivity, cleavage of fluorogenic tetrapeptide substrate; type: biochemical; settings: FL hMALT1 1-10 nM, Ac-LVSR-AMC 100 μM, 0.7 M sodium citrate, 30 min preincubation, 60 min read
Chain of FL hMALT1 enzyme (Q9UDY8 whole entry): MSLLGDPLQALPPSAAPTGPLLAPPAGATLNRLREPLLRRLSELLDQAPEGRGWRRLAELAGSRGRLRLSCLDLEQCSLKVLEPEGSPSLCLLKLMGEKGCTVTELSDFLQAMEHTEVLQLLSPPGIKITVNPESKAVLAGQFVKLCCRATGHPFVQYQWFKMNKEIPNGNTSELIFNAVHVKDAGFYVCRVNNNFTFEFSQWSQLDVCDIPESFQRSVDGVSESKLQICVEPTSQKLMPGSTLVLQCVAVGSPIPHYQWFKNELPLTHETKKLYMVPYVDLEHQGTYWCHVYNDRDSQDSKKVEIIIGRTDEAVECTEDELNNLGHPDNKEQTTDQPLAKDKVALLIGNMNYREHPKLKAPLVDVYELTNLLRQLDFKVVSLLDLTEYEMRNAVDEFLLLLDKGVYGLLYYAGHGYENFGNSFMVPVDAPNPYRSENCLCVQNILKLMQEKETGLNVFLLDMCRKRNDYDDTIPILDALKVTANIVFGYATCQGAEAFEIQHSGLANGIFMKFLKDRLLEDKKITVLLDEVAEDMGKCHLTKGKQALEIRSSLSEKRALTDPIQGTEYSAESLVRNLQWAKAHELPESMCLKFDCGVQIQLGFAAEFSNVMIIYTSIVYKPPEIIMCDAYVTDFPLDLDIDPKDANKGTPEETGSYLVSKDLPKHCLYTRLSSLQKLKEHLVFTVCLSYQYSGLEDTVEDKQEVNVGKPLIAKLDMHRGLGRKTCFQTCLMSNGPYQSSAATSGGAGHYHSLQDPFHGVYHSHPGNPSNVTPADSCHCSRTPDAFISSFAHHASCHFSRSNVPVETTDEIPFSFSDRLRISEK
Description: MALT1 Protease Assay 2 (Assay 2)
as §1
For a higher sensitivity assay, commercially available FL hMALT1 enzyme (Abcam, 1-10 nM) was incubated with substrate (Ac-LVSR-AMC, 100 μM) in reaction buffer comprising 50 mM HEPES (pH7.0), 25 mM KCl, 0.1% (v/v) CHAPS, 1 mM TCEP and 0.7 M sodium citrate.
as §2

Chain of MALT1-GS-Ub (6-His-hMALT-1 residues 339-715 fused to ubiquitin) (Q9UDY8 other isoform, or with tags, fused parts or gaps): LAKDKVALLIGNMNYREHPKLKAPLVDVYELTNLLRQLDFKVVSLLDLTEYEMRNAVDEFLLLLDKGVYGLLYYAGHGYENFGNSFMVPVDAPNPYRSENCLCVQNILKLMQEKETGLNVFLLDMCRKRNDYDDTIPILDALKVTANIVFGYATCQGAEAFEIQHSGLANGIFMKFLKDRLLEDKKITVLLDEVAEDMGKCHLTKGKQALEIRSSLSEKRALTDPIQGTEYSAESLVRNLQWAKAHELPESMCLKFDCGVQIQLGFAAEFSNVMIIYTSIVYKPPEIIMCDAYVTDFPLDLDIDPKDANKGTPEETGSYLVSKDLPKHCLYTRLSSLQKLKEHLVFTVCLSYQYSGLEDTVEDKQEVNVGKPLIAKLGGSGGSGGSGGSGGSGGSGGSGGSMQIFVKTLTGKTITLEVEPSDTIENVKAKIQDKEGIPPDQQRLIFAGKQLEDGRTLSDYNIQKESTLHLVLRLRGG

`CC1(C)CN(C(=O)Nc2cnc(-n3nccn3)c(Cl)c2)c2cncc(C3CC3)c2O1` [Example 24, N-(5-Chloro-6-(2H-1,2,3-triazol-2-yl)pyridin-3-yl)-8-cyclopropyl-2,2-dimethyl-2,3-dihydro-4H-pyrido[4,3-b][1,4]oxazine-4-carboxamide] showed an IC50 [1] of 2500 nM and an IC50 (FL hMALT1 enzyme) of 340 nM.
`CC1(C)CN(C(=O)Nc2cnc(-n3nccn3)c(Cl)c2)c2cccc(Br)c2O1` [Example 13, 8-Bromo-N-(5-chloro-6-(2H-1,2,3-triazol-2-yl)pyridin-3-yl)-2,2-dimethyl-2,3-dihydro-4H-benzo[b][1,4]oxazine-4-carboxamide] gave an IC50 [1] of 1300 nM and an IC50 (FL hMALT1 enzyme) of 1300 nM.
With `O=C(Nc1cnc(-n2nccn2)c(C(F)(F)F)c1)N1CCOc2c(Br)cccc21` [Example 4, N-(6-(2H-1,2,3-Triazol-2-yl)-5-(trifluoromethyl)pyridin-3-yl)-8-bromo-2,3-dihydro-4H-benzo[b][1,4]oxazine-4-carboxamide] the IC50 [1] was 2800 nM and the IC50 (FL hMALT1 enzyme) was 400 nM.
Compound `O=C(Nc1cnc(-n2nccn2)c(Cl)c1)N1CC(C(F)(F)F)Oc2c(Br)cncc21` (single isomer, unassigned) [Example 39, 8-Bromo-N-(5-chloro-6-(2H-1,2,3-triazol-2-yl)pyridin-3-yl)-2-(trifluoromethyl)-2,3-dihydro-4H-pyrido[4,3-b][1,4]oxazine-4-carboxamide] has an IC50 [1] of 5800 nM and an IC50 (FL hMALT1 enzyme) of 1200 nM.
For `O=C(Nc1cnc(-n2nccn2)c(Cl)c1)N1C[C@@H]2CCCN2c2c(Br)cncc21` [Example 25, (S)-1-Bromo-N-(5-chloro-6-(2H-1,2,3-triazol-2-yl)pyridin-3-yl)-6a,7,8,9-tetrahydropyrido[3,4-e] pyrrolo[1,2-a]pyrazine-5 (6H)-carboxamide], the IC50 [1] was 1060 nM and the IC50 (FL hMALT1 enzyme) was 230 nM.
`O=C(Nc1cnc(-n2nccn2)c(C(F)(F)F)c1)N1CCCc2c(-c3cccnc3)cccc21` [Example 8, N-(6-(2H-1,2,3-Triazol-2-yl)-5-(trifluoromethyl)pyridin-3-yl)-5-(pyridin-3-yl)-3,4-dihydroquinoline-1 (2H)-carboxamide] showed an IC50 [1] of 9800 nM and an IC50 (FL hMALT1 enzyme) of over 10000 nM.
`O=C(Nc1cnc(-n2nccn2)c(C(F)(F)F)c1)N1CCCc2c(-c3ncco3)cccc21` [Example 9, N-(6-(2H-1,2,3-Triazol-2-yl)-5-(trifluoromethyl)pyridin-3-yl)-5-(oxazol-2-yl)-3,4-dihydroquinoline-1 (2H)-carboxamide] gave an IC50 [1] of 4600 nM and an IC50 (FL hMALT1 enzyme) of 2000 nM.
In the case of `N#Cc1cccc2c1CCCN2C(=O)Nc1cnc(-n2nccn2)c(Cl)c1` [Example 7, N-(5-Chloro-6-(2H-1,2,3-triazol-2-yl)pyridin-3-yl)-5-cyano-3,4-dihydroquinoline-1 (2H)-carboxamide], the IC50 [1] is reported as 6900 nM and the IC50 (FL hMALT1 enzyme) is reported as 1200 nM.
`C#CC1CN(C(=O)Nc2cnc(-n3nccn3)c(Cl)c2)c2cccc(Br)c2O1` (centres unmarked) [Example 20, 8-Bromo-N-(5-chloro-6-(2H-1,2,3-triazol-2-yl)pyridin-3-yl)-2-ethynyl-2,3-dihydro-4H-benzo[b][1,4]oxazine-4-carboxamide] gave an IC50 [1] of 3300 nM and an IC50 (FL hMALT1 enzyme) of 590 nM.
For `COc1cccc2c1CCCN2C(=O)Nc1cnc(-n2nccn2)c(Cl)c1` [Example 3, N-(5-Chloro-6-(2H-1,2,3-triazol-2-yl)pyridin-3-yl)-5-methoxy-3,4-dihydroquinoline-1 (2H)-carboxamide], the IC50 [1] was 3000 nM and the IC50 (FL hMALT1 enzyme) was 610 nM.
`O=C(Nc1cnc(-n2nccn2)c(Cl)c1)N1CC(C(F)(F)F)Oc2c(Br)cncc21` (centres unmarked) [Example 38, 8-Bromo-N-(5-chloro-6-(2H-1,2,3-triazol-2-yl)pyridin-3-yl)-2-(trifluoromethyl)-2,3-dihydro-4H-pyrido[4,3-b][1,4]oxazine-4-carboxamide] was tested, and the IC50 [1] was 730 nM and the IC50 (FL hMALT1 enzyme) was 120 nM.
For `CN1CCN(C(=O)Nc2cnc(-n3nccn3)c(Cl)c2)c2cccc(Br)c21` [Example 16, 5-Bromo-N-(5-chloro-6-(2H-1,2,3-triazol-2-yl)pyridin-3-yl)-4-methyl-3,4-dihydroquinoxaline-1 (2H)-carboxamide], the IC50 [1] was 2500 nM and the IC50 (FL hMALT1 enzyme) was 900 nM.
`C[C@@H]1CN(C(=O)Nc2cnc(-n3nccn3)c(C(F)(F)F)c2)c2cccc(Br)c2[C@@H]1C` (relative stereo) [Example 11, cis-N-(6-(2H-1,2,3-Triazol-2-yl)-5-(trifluoromethyl)pyridin-3-yl)-5-bromo-3,4-dimethyl-3,4-dihydroquinoline-1 (2H)-carboxamide] gave an IC50 [1] of 4100 nM and an IC50 (FL hMALT1 enzyme) of 1200 nM.
In the case of `O=C(Nc1cnc(-n2nccn2)c(Cl)c1)N1CCCc2c(C3CC3)cncc21` [Example 22, N-(5-Chloro-6-(2H-1,2,3-triazol-2-yl)pyridin-3-yl)-5-cyclopropyl-3,4-dihydro-1,7-naphthyridine-1 (2H)-carboxamide], the IC50 [1] is reported as 4000 nM and the IC50 (FL hMALT1 enzyme) is reported as 4700 nM.
Work on `O=C(Nc1cnc(-n2nccn2)c(C(F)(F)F)c1)N1CCCc2c(-c3nncs3)cccc21` [Example 14, N-(6-(2H-1,2,3-triazol-2-yl)-5-(trifluoromethyl)pyridin-3-yl)-5-(1,3,4-thiadiazol-2-yl)-3,4-dihydroquinoline-1 (2H)-carboxamide] yielded an IC50 [1] of 8500 nM and an IC50 (FL hMALT1 enzyme) of 8200 nM.
With `O=C(Nc1cnc(-n2nccn2)c(Cl)c1)N1CC(C(F)(F)F)Nc2c(Br)cncc21` (centres unmarked) [Example 37, 8-Bromo-N-(5-chloro-6-(2H-1,2,3-triazol-2-yl)pyridin-3-yl)-2-(trifluoromethyl)-2,3-dihydropyrido[3,4-b]pyrazine-4 (1H)-carboxamide] the IC50 [1] was 3900 nM and the IC50 (FL hMALT1 enzyme) was 540 nM.
`CC1CN(C(=O)Nc2cnc(-n3nccn3)c(C(F)(F)F)c2)c2cccc(Br)c2O1` (centres unmarked) [Example 5, N-(6-(2H-1,2,3-Triazol-2-yl)-5-(trifluoromethyl)pyridin-3-yl)-8-bromo-2-methyl-2,3-dihydro-4H-benzo[b][1,4]oxazine-4-carboxamide] showed an IC50 [1] of 3300 nM and an IC50 (FL hMALT1 enzyme) of 120 nM.
`O=C(Nc1cnc(-n2nccn2)c(Cl)c1)N1CC2(CCOC2)Oc2c(Br)cncc21` (centres unmarked) [Example 27, 8′—Bromo-N-(5-chloro-6-(2H-1,2,3-triazol-2-yl)pyridin-3-yl)-4,5-dihydro-2H-spiro [furan-3,2′-pyrido[4,3-b][1,4]oxazine]-4′ (3′H)-carboxamide] showed an IC50 [1] of 5000 nM and an IC50 (FL hMALT1 enzyme) of 900 nM.
For `CN1c2c(Br)cncc2N(C(=O)Nc2cnc(-n3nccn3)c(Cl)c2)CC1(C)C` [Example 31, 8-Bromo-N-(5-chloro-6-(2H-1,2,3-triazol-2-yl)pyridin-3-yl)-1,2,2-trimethyl-2,3-dihydropyrido[3,4-b]pyrazine-4 (1H)-carboxamide], the IC50 [1] was 3000 nM and the IC50 (FL hMALT1 enzyme) was 260 nM.
With `O=C(Nc1cnc(-n2nccn2)c(C(F)(F)F)c1)N1CCCc2c(-c3ccccc3)cccc21` [Example 12, N-(6-(2H-1,2,3-Triazol-2-yl)-5-(trifluoromethyl)pyridin-3-yl)-5-phenyl-3,4-dihydroquinoline-1 (2H)-carboxamide] the IC50 [1] was 2300 nM and the IC50 (FL hMALT1 enzyme) was 650 nM.
In the case of `CN1CCN(C(=O)Nc2cnc(-n3nccn3)c(Cl)c2)c2cncc(Br)c21` [Example 29, 8-Bromo-N-(5-chloro-6-(2H-1,2,3-triazol-2-yl)pyridin-3-yl)-1-methyl-2,3-dihydropyrido[3,4-b]pyrazine-4 (1H)-carboxamide], the IC50 [1] is reported as 3800 nM and the IC50 (FL hMALT1 enzyme) is reported as over 3000 nM.
With `CC1(C)Cc2c(Br)cccc2N(C(=O)Nc2cnc(-n3nccn3)c(Cl)c2)C1` [Example 15, 5-Bromo-N-(5-chloro-6-(2H-1,2,3-triazol-2-yl)pyridin-3-yl)-3,3-dimethyl-3,4-dihydroquinoline-1 (2H)-carboxamide] the IC50 [1] was 1300 nM and the IC50 (FL hMALT1 enzyme) was 440 nM.

From patent US20250136577A1, “HETEROCYCLIC DERIVATIVES AS MALT1 INHIBITORS” (C4X Discovery Limited, priority 2022, published 2025)
